In patent US20240109843A1, “BENZALDEHYDE COMPOUNDS WITH DIRECT POLYMER DESTABILIZING EFFECTS TO TREAT SICKLE CELL DISEASE” (VIRGINIA COMMONWEALTH UNIVERSITY, priority 2018, published 2024):
Several values for one entry are separate records, joined by “and”; a condition that tells them apart may be missing. Equal values may be shown once.

Assays:
[1] = target: T1, Hb (Homo sapiens, UniProt P69905); assay: Drug partitioning studies, fixed and unfixed Hb adducts in non-sickling AA blood; assay type: cell-based; set-up: Hemoglobin modification, studies using non-sickling AA blood; from tissue; host or cells: non-sickling (AA) human blood, red blood cells; settings: 2 mM; for Fixed Adducts (%) / Unfixed Adduct (%): 6 biological replicates; for Partitioning Ratio (%): fixed relative to unfixed adducts
Method: RBC partitioning studies were conducted both for SS RBCs following sickling studies above, or as separate independent studies with non-sickle blood. Briefly, aliquots of blood samples, which had been incubated with test molecules, were lysed either in deionized water (un-fixed), or in water containing 50 mM sodium borohydride (fixed). Samples were subjected to cation exchange HPLC analyses, as described above. Modified […] (Hb adducts) was determined as a proportion of total Hb in each sample, and partitioning ratio was determined as the relative fraction of Hb modification of fixed samples compared to corresponding non-fixed samples. The partitioning ratio is the relative fraction of Hb that was modified intracellularly by molecules that permeated the RBC membrane, as compared to unfixed adducts which reflect Hb binding without RBC membrane permeation.
Target sequence in this assay (P69905 2-142 limits assumed): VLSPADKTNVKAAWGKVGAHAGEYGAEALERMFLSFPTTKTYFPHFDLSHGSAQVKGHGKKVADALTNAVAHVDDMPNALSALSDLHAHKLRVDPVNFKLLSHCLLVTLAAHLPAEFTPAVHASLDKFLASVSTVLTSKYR
Target sequence in this assay (P68871 2-147 partner limits assumed): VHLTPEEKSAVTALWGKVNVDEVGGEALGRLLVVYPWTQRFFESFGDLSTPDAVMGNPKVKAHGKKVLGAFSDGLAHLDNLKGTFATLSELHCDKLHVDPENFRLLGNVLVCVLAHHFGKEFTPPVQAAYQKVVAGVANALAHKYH

[2] = target: T1, Hb; assay: Hb modification (drug-adduct formation) in SS blood suspensions by cation-exchange HPLC; assay type: binding; set-up: Blood suspensions from subjects with homozygous SCD; from tissue; host or cells: blood suspensions (20% hematocrit) from donors with homozygous SCD; lysates of the treated red cells; settings: 2 mM, 4 biological replicates
Method: All compounds (Comp 1-13) and comparator molecules (VZHE-039, PP-14, INN-310, and Voxelotor) were evaluated following established procedures. Blood samples from individual donors with homozygous SCD (obtained with informed consent) were diluted using Hemox buffer solution with the addition of glucose (10 mM) and BSA (0.2%) to adjust hematocrit of the blood suspensions to 20%, which standardizes the procedure to normalize the ratio of RBCs to drug, for assay consistency and reproducibility. Briefly, blood suspensions were incubated under room air in the presence of various concentrations of test compounds (0-2 mM) at 37° C. for 1 hour in 96-well round bottom plates. Subsequently, the suspensions were incubated with a hypoxic gas mixture (2.5% Oxygen gas/balance Nitrogen gas) at 37° C. for up to 2 hours prior to fixation with 2% glutaraldehyde solution without exposure to air. The fixated blood aliquots were evaluated by microscopic morphological analysis (image analysis on Image J software) to identify the proportion of sickled and non-sickled RBCs, and sickle inhibition calculated based on the % change from negative control (DMSO).
The residual samples were then washed in phosphate-buffered saline, and hemolyzed in hypotonic lysis buffer, with or without sodium borohydride (50 mM). Aliquots obtained from the lysates with or without sodium borohydride (to reduce Schiff base adducts) were also assessed for level of Hb modification (drug-adduct formation) by cation-exchange HPLC (Hitachi D-7000 Series, Hitachi Instruments, Inc., San Jose, CA) with a weak cation-exchange column (Poly CAT A: 50 mm×4.6 mm, Poly LC, Inc., Columbia, MD). Hemoglobin isotype peaks are eluted with a linear gradient of phase B from 0% to 80% at A410 nm (Mobile Phase A: 40 mM Bis-Tris, 2 mM KCN, pH 6.9; Phase B: 40 mM Bis-Tris, 2 mM KCN, 0.2 M sodium chloride, pH 6.55). Clarified lysate from normal human adult […] (Hb A), as well as commercial standards containing approximately equal amounts of Hb F, A, S and C (Helena Laboratories, Beaumont, TX), were utilized as reference isotypes. Reduced samples were used to assess “fixed adduct” formation (dependent on RBC membrane permeability), whereas non-reduced samples assessed drug-adduct formation independent of drug permeability.
Target sequence in this assay (P69905 2-142): as the sequence (P69905 2-142 limits assumed) above
Target sequence in this assay (P68871 with tags, fused parts or gaps E7V partner): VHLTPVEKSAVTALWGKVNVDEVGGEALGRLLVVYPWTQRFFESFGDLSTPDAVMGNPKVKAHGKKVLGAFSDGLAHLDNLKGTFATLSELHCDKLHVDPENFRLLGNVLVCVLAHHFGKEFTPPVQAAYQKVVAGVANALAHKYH

[3] = Single-dose oral pharmacokinetics in rats; assay type: in vivo, Sprague Dawley rats; settings: Sprague Dawley, rat; single oral dose 100 mg/kg, male rats, whole blood
Method: Single doses of each compound were administered as oral suspensions by gavage in 0.5% carboxy methylcellulose at 100 mg/kg. Whole blood levels were collected for at least 72 hours after dose administration. Bioanalyses were performed with liquid chromatography-tandem mass spectrometry […].
Single-dose pharmacokinetics (PK) in male Sprague Dawley (SD) rats (n=4) were assessed for each compound, and the maximum or peak whole blood concentration and area under the curve are shown in Table 5.

[4] = system: RBCs from donors with homozygous SCD; assay: Oxygen-independent sickle inhibition in SS blood suspensions under anoxia (100% nitrogen); assay type: cell-based, human; settings: anoxia
Method: To establish oxygen-independent sickle inhibition, the incubation chamber was subsequently opened and exposed to room air for 15 minutes to ensure complete re-oxygenation and reversal of the sickled cells to normal round cells. Reversal was confirmed by microscopy. The incubation chamber was then closed, and the assay was repeated with incubation in 100% nitrogen gas for 1 hour (for screening), or up to 2.5 h (for time-course studies), with collection and fixation of blood aliquots at defined intervals. Aliquot samples were again subjected to microscopic morphological analysis of bright field images to identify the proportion of sickled and non-sickled cells, and sickle inhibition calculated.

[5] = target: T1, Hb; assay: Oxygen equilibrium curve (OEC) studies with normal whole blood; assay type: cell-based; set-up: Hemoglobin modification, studies using non-sickling AA blood; from tissue; host or cells: non-sickling (AA) human blood, red blood cells; settings: normal whole blood, 0.5, 1, 2 mM
Method: Oxygen equilibrium curve (OEC) studies to determine the effect of the compounds on Hb affinity for oxygen were conducted following standard procedure. Whole blood (30% hematocrit) was incubated in the absence or presence of compounds (0.5 mM, 1.0 mM and 2.0 mM) solubilized in DMSO. […] After equilibration, the sample was removed via syringe and aspirated into an ABL 700 series table top automated blood gas analyzer (Radiometer America, Inc., Westlake, OH) to determine total hemoglobin (tHb), hematocrit (Hct), pH, pCO2, partial pressure of oxygen (pO2), and the Hb-O2 saturation (sO2) values. The measured values of pO2 and sO2 at each oxygen saturation level were then subjected to nonlinear regression analysis using the software Scientist (Micromath, Salt Lake City UT) with the following equation: […]
Aromatic aldehydes are known to prevent hypoxia-induced Hb S polymerization by increasing the Hb affinity for oxygen. We therefore tested the PP compounds in a dose-dependent manner (0.5, 1, 2 mM) for their effect on Hb oxygen binding property. […] These findings confirmed that the potent in vitro activity previously seen in TD7 was at least conserved in the novel PP compounds.
Target sequence in this assay (P69905 2-142 limits assumed): as the sequence (P69905 2-142 limits assumed) above
Target sequence in this assay (P68871 2-147 partner limits assumed): as the sequence (P68871 2-147 partner limits assumed) above

[6] = target: T2, intracellular Hb (Mus musculus, UniProt P01942); assay: In vivo modification of intracellular Hb in wild-type mice; set-up: species or system C57BL/6 mice; settings: IP 150 mg/kg, 30% PEG300, 6 h
T2 construct: from tissue; host or cells: blood (red cell lysates) of dosed C57BL/6 mice
T2 sequence (P01942 2-142 limits assumed): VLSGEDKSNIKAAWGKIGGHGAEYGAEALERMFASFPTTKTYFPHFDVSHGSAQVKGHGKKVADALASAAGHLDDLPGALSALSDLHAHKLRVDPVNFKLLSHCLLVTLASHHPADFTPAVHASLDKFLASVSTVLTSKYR
T2 sequence (P02088 2-147 partner limits assumed): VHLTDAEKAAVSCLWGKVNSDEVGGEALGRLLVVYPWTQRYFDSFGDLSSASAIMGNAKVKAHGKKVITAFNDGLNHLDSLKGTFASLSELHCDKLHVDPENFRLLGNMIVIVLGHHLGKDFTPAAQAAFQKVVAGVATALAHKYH
Method: We tested in vivo pharmacologic (pharmacodynamics) effects of select PP compounds in C57BL/6 mice. The animals were treated with a single intraperitoneal (IP) (150 mg/kg body weight) dose of PP6, PP10, PP14, and TD7, which were formulated with 30% PEG300. Blood samples were obtained prior to treatment (0) and 1, 3 and 6 h post-treatment, via submandibular bleeding, and subjected to hemolysis using standard methods. Clarified lysates, free of cell debris and red blood cell ghosts were analyzed by cation-exchange HPLC to determine the levels of drug-modified hemoglobin (adducts); and to conduct oxygen equilibrium studies to determine degrees of shift in p50 values using methodologies described earlier for in vitro studies on human samples. In a subsequent follow-up experiment, a new excipient obtained from Catalent Pharma Solutions was also used to formulate PP14 and used for a single intraperitoneal (IP) and oral (150 mg/kg body weight) dose. Blood samples were obtained prior to treatment (0) and 1, 3 or 5 h post-treatment, via submandibular bleeding, and used to determine the levels of drug-modified hemoglobin (adducts); and to conduct oxygen equilibrium studies to determine degrees of shift in p50 values as described above.

[7] = system: sickle red blood cells; assay: Antisickling study with human sickle blood under 2.5% oxygen; assay type: cell-based; settings: 0.5, 1 and 2 mM, sickle RBCs
Method: Blood suspensions from subjects with homozygous SCD (resuspended in Hemox™ buffer to a final hematocrit 20%) were incubated under air in the absence or presence of the compounds (0.5 mM, 1 mM and 2 mM) at 37° C. for 1 h to ensure that binding had attained equilibrium. The suspensions were then incubated under hypoxic conditions (2.5% oxygen/97.5% nitrogen) at 37° C. for 1 h. Aliquot samples were fixed with 2% glutaraldehyde solution without exposure to air, and then subjected to microscopic morphological analysis of bright field images (at 40× magnification) of single layer cells on an Olympus BX40 microscope fitted with an Infinity Lite B camera (Olympus), and the coupled Image Capture software. The residual samples were washed in phosphate-buffer saline, and hemolyzed in hypotonic lysis buffer for subsequent Hb-modification and oxygen equilibrium analyses.
The studies described above were conducted using normal whole blood. Next, we investigated whether the improvement in Hb oxygen affinity and the compounds sustained activity also translated to similar effects in SS blood from SCD patients. […] At 1 mM, PP8 and PP9 inhibited nearly 100% of sickling, while PP2, PP6, PP14 inhibited sickling by more than 70%. […] It is clear that the modifications of the present compounds has led to significant improvement in antisickling activity.

Structure (SMILES) | Fixed Adducts (%) [1] [%] | Unfixed Adduct (%) [1] [%] | Partitioning Ratio (%) [1] [%] | Hb Modification (%) [2] [%] | effect on Hb oxygen binding property (OEC) [5] | further results
O=Cc1c(O)cccc1OCc1ccncc1 [Comp 3, 2-hydroxy-6-(pyridin-4-ylmethoxy)benzaldehyde] | 60.1 ± 3.0 | 60.0 ± 3.3 | 100.1 ± 0.9 | 74.4 ± 10.6 | – | –
O=Cc1c(O)cccc1OCc1cncc(F)c1 [Comp 4, 2-((5-fluoropyridin-3-yl)methoxy)-6-hydroxybenzaldehyde] | 85.9 ± 7.1 | 88.8 ± 6.2 | 96.9 ± 5.73 | 92.9 ± 9.8 | – | AUC(0-inf) [3]: 831000 ng·h/mL and 3360 µM·h; Cmax [3]: 59800 ng/mL and 242 µM; half-life [3]: 5.9 h
O=Cc1c(F)cc(F)cc1OCc1ccccn1 [Comp 9, 2,4-difluoro-6-(pyridin-2-ylmethoxy)benzaldehyde] | 72.7 ± 4.1 | 69.4 ± 7.5 | 105.2 ± 5.9 | 69.1 ± 11.8 | – | polymer destabilizing effect / sickle inhibition in anoxia (in words) [4]: completely negates the polymer destabilization effects
O=Cc1c(O)cccc1OCc1cncnc1 [Comp 10, 2-hydroxy-6-(pyrimidin-5-ylmethoxy)benzaldehyde] | 94.8 ± 2.8 | 96.3 ± 3.0 | 98.5 ± 2.7 | 100.0 ± 0.0 | – | AUC(0-inf) [3]: 693000 ng·h/mL and 3010 µM·h; Cmax [3]: 36200 ng/mL and 157 µM; half-life [3]: 4.7 h
COC(=O)c1ccc(COc2ccc(OC)cc2C=O)nc1 [PP1, Methyl 6-((2-formyl-4-methoxyphenoxy)methyl)nicotinate] | – | – | – | – | minimal effect | –
COC(=O)c1cccc(COc2cccc(O)c2C=O)n1 [PP10, Methyl 6-((2-formyl-3-hydroxyphenoxy)methyl)picolinate] | – | – | – | – | – | modified Hb [6]: 9.6±1.9%
COC(=O)c1cncc(COc2ccc(OC)cc2C=O)c1 [PP12, Methyl 5-((2-formyl-4-methoxyphenoxy)methyl)nicotinate] | – | – | – | – | most significant activities | –
COc1cc(C=O)ccc1O [vanillin, reference compound] | – | – | – | – | very weak functional effect | sickling inhibition (in words) [7]: minimal sickling inhibition

Second part, led by results:

Fixed Adducts (%) [1] [%] | Unfixed Adduct (%) [1] [%] | Partitioning Ratio (%) [1] [%] | Hb Modification (%) [2] [%] | effect on Hb oxygen binding property (OEC) [5] | Structure (SMILES) | further results
67.3 ± 12.1 | 67.1 ± 10.3 | 100.0 ± 2.8 | 73.8 ± 15.4 | – | O=Cc1c(O)cccc1OCc1cccnc1F [Comp 6, 2-((2-fluoropyridin-3-yl)methoxy)-6-hydroxybenzaldehyde] | AUC(0-inf) [3]: 180000 ng·h/mL and 728 µM·h; Cmax [3]: 12100 ng/mL and 49 µM; half-life [3]: 8.2 h
59.6 ± 5.7 | 60.2 ± 5.7 | 99.0 ± 3.1 | 73.91 ± 9.8 | – | O=Cc1c(O)cccc1OCc1cccnc1Cl [Comp 7, 2-((2-chloropyridin-3-yl)methoxy)-6-hydroxybenzaldehyde] | –
85.6 ± 2.5 | 84.8 ± 7.5 | 101.3 ± 6.3 | 100.0 ± 0.0 | – | O=Cc1c(O)cccc1OCc1ncccc1Cl [Comp 8, 2-((3-chloropyridin-2-yl)methoxy)-6-hydroxybenzaldehyde] | AUC(0-inf) [3]: 269000 ng·h/mL and 1020 µM·h; Cmax [3]: 20000 ng/mL and 76 µM; half-life [3]: 9.5 h
88.2 ± 2.1 | 87.7 ± 4.3 | 100.7 ± 3.0 | 98.1 ± 3.2 | – | O=Cc1c(O)cccc1OCc1ncccn1 [Comp 11, 2-hydroxy-6-(pyrimidin-2-ylmethoxy)benzaldehyde] | –
– | – | – | – | minimal effect | COC(=O)c1ccnc(COc2ccc(OC)cc2C=O)c1 [PP4] | –
– | – | – | – | most significant activities | COC(=O)c1ccnc(COc2cccc(O)c2C=O)c1 [PP7, Methyl 2-((2-formyl-3-hydroxyphenoxy)methyl)isonicotinate] | –
